The values that follow come from patent US20220288223A1, “ACTIVATABLE SPECIFIC BINDING MEMBER COMPLEXES, AND METHODS OF MAKING AND USING SAME” (The Regents of the University of California, priority 2019, published 2022).

For experiment [1], the system named is head and neck cancer cell line (Cal-27). Kind of experiment: Immunohistocytochemistry, HRP-dependent DAB staining (FIG. 4). It is filed as cell-based.
In the next experiment the target is Thrombin (Homo sapiens, UniProt P00734). Kind of experiment: Gel electrophoresis of PA-cetuximab after thrombin treatment (FIG. 5). The following applies: thrombin activation. In kind it is biochemical. The source says: Protease cleavage of blocked PA-cetuximab causes size change as CDR blocking domains is proteolytically released from cetuximab panibody. Lane 1 is a protein marker.

The target of the next experiment is EGFR (Homo sapiens, UniProt P00533). Description: EGFR binding curve of PA-cetuximab with and without thrombin (FIG. 4).
For experiment [2], the system named is orthotopic Cal-27 xenograft tumors. Kind of experiment: In vivo ratiometric fluorescence imaging of RACPPs in orthotopic tongue tumor model. The settings on record: mice, orthotopic Cal-27 tongue tumors, IV injection. From the text: FIG. 2. In vivo ratiometric fluorescence imaging of RACPPs in orthotopic tongue tumor model (Cal27) for protease selective probes.

Turning to “(Acety-QGQSGQCISPRGCPDGPYVMY-PEG6-(Nle-TPRSFL)-PEG24)n-cetuximab [PA-cetuximab]”, the “Binding to Cal-27 cells (DAB staining on membranes)” value is listed as “blocks binding” in experiment [1] (FIG. 4 panel C, equivalent with no antibody control (E)) and “binding” in experiment [1] (FIG. 4 panel D). Moreover, the “Binding to cells (Cal-27) that express EGFR” value in experiment [1] (after thrombin treatment) was “allow binding”. Also, the “Change in size of inhibited complex on acrylamide gel” value at Thrombin is listed as “size shift”. For the same substance, the EGFR binding result on EGFR (after thrombin treatment, EGFR protein) is recorded as “allow binding”; at EGFR (without thrombin (solid line)) it was “blocked”.
Turning to “KLRFSQK [Cy5/Cy7 RACPP, cathepsin cleavable probe]”, in experiment [2], the “Ratiometric fluorescence labeling of tumor versus adjacent tissue” value (from here on “Ratiometric fluorescence labeling”) is listed as “very selective targeting to cancerous tongue”.
Turning to PLGC(me)AG, the “Ratiometric fluorescence labeling” value in experiment [2] was “good cleavage in the tumor but also had high signal in adjacent tongue”.
TGRAAA: in experiment [2], the “Ratiometric fluorescence labeling” value was “high level localized uptake at the center of the tumor”.
On the same count and under the same terms, the entry for YGRAAA is “tumor specific labeling at high intensity with very low labeling of adjacent tissue”.
